Peptide text beside a SMILES is read from it. * marks the point of attachment. Cbz = O=C(OCc1ccccc1)*
Tests used:
[1] = tested on: THP1/WT; details: data from Oerlemans et al, 2008; cited from earlier work
[2] = tested on: THP1/BTZ50; details: data from Oerlemans et al, 2008; cited from earlier work
[3] = tested on: THP1/BTZ100; details: data from Oerlemans et al, 2008; cited from earlier work
[4] = tested on: THP1/BTZ200; details: data from Oerlemans et al, 2008; cited from earlier work
[5] = tested on: THP1/BTZ500; details: data from Oerlemans et al, 2008; cited from earlier work
[6] = tested on: T1, proteasomes isolated from rabbit reticulocytes; assay type: biochemical; details: Lineweaver-Burk plot analysis
T1 construct: other: Lineweaver-Burk plot analysis; other: at the Fa 10; other: at the Fa 25; other: at the Fa 50
Experimental: (§1) Data represent the mean±SD.
(§2) After incubation, cleavage of the fluorogenic substrate Z-Leu-Leu-Glu-AMC was measured as above. […] The approximate binding sites of bortezomib that is located inside the catalytic chamber are also indicated.
(§3) Proteasome complexes were isolated from rabbit reticulocytes and T. acidophilum as described previously.
(§4) Data are expressed as mean values±SD. The statistical significance was computed with Student's t-test. […] Isobologram analysis was performed with CalcuSyn software (Biosoft, Ferguson, Mo., and Cambridge, UK). A combination index (CI) less than 1.0 indicated synergism.

[7] = target: T2, proteasomes isolated from rabbit reticulocytes; assay type: biochemical; details: Lineweaver-Burk plot analysis, noncompetitive model
T2 construct: Ki
Experimental: as §1, §2, §3, §4

[8] = target: T3, proteasome isolated from archaebacterium T. acidophilum (Thermoplasma acidophilum, UniProt P25156); assay: enzymatic activity of purified T. acidophilum proteasome (Suc-LLVY-AMC cleavage); assay type: biochemical
T3 construct: made in house
Excerpt: Data represent the mean±SD. A Lineweaver-Burk plot is presented as a fit to a noncompetitive model of inhibition.
as §3

[9] = tested on: proteasome in protein extracts from MDAY-D2 leukemia cells; assay: proteasome activity in cell extracts (Suc-LLVY-AMC); assay type: biochemical, murine; details: added to extracts derived from MDAY-D2 leukemia cells
Experimental: A) Protein extracts from MDAY-D2 leukemia cells were treated with aliquots of compounds from a focused chemical library (final concentration 5 μM).

[10] = target: T4, α7-α7 half-proteasome of the T. acidophilum 20S proteasome (Thermoplasma acidophilum, UniProt P25156); assay: inhibitor binding to the proteasome by NMR; details: 50° C., methyl-labelled α7-α7
T4 construct: His-tag (N, cleaved yes); made in house
Excerpt: The 20S proteasome from T. acidophilum was produced as described previously with the alpha and beta subunits co-expressed from 2 different plasmids (where the beta subunit carried a C terminal His-tag). Samples of the half-proteasome comprised of pairs of alpha-rings, a7-a7, were produced by overexpression of the a subunit that carried a N-terminal cleavable His-tag that was removed during purification. Methyl labelling of proteins for NMR analysis was achieved by growing cells in D2O based minimal medium with ^2H-^12C glucose as the carbon source. One hour before induction of protein expression, alpha-ketobutyric acid (60 mg/L) and alpha-ketoisovaleric acid (100 mg/L; only one of the two isopropyl methyls was ^13CH3 labeled, the other ^12CD3) were added to introduce ^13CH3 methyl groups in Ile, Leu and Val. Proteins were purified by Ni-NTA affinity resin and size exclusion chromatography.
NMR experiments with the (a7-a7) proteasome were performed on Varian 600 MHz spectrometers at 50° C. on samples that were ˜[…], 100% D2O, 25 mM potassium phosphate pH 6.8, 50 mM NaCl, 1 mM EDTA, 0.03% NaN3 and 2 mM DTT similar to previously described. NMR data was processed and analyzed with the nmrPipe/nmrDraw software package.

[11] = tested on: LP1 myeloma cell lines; assay: ubiquitinated proteins by immunoblotting; assay type: cell-based, human; details: 24 hours after treatment
Experimental: Whole cell lysates were prepared from myeloma cells as described previously. Briefly, cells were washed with phosphate-buffered saline (PBS, pH 7.4) and re-suspended in lysis buffer [10 mM Tris (pH 7.4), 150 mM NaCl, 0.1% Triton X-100, 0.5% sodium deoxycholate, and 5 mM EDTA] containing protease inhibitors (Complete tablets, Roche, Indianapolis, Ind.). Protein concentrations were determined by the Bradford assay. Equal amounts of protein were subjected to SDS-PAGE gels followed by transfer to nitrocellulose membranes. Membranes were probed with rabbit anti-human polyclonal anti-ubiquitin (1:1000 v/v) (Calbiochem, San Diego, Calif.), or mouse monoclonal anti-beta actin (1:10,000 v/v) (Sigma) followed by secondary horseradish peroxidase (HRP)-conjugated goat anti-mouse (1:10,000 v/v) or anti-rabbit IgG (1:5,000 v/v) (Amersham Bioscience UK, Little Chalfont, England). Detection was performed by the Enhanced Chemical Luminescence (ECL) method (Pierce, Rockford, Ill.).
Twenty four hours after treatment, the abundance of ubiquitinated proteins in the cells was measured by immunoblotting.

[12] = tested on: NFkappaB p50 subunit DNA binding in MDAY-D2 cells; assay: NFkappaB activity (p50 DNA-binding ELISA); assay type: cell-based, murine; details: 24 hours 5AHQ, with and without TNF-alpha
Experimental: NFkappaB activity was measured using the Trans-AM NFkappaB p65 transcription factor assay kit (Active Motif, Carlsbad, Calif.) according to the manufacturer's instructions. […] Nuclear extracts were prepared using the Nuclear Extract kit (Active Motif, Carlsbad, Calif.) according to the manufacturer's instructions. Binding of the NFkappaB transcription factor subunit p50 to the DNA consensus sequence (5′-[…]-3′) cross linked to 96-well plates was measured using enzyme-linked immunosorbent assay (ELISA) technology with absorbance reading according to the manufacturer's protocol.

[13] = tested on: myeloma cell lines; assay: cell viability MTS assay, myeloma cell lines; assay type: cell-based, human; details: 72 hours, in 7/7 myeloma cell lines
[14] = tested on: leukemia cell lines; assay: cell viability MTS assay, leukemia cell lines; assay type: cell-based, human and murine; details: 72 hours, in 6/10 leukemia cell lines
[15] = tested on: solid tumor cell lines; assay: cell viability MTS assay, solid tumor cell lines; assay type: cell-based, human; details: 72 hours, in 3/10 solid tumor cell lines
[16] = tested on: normal hematopoietic cells; assay: viability of normal hematopoietic cells (PBSC); assay type: cell-based, human
Experimental: Forty-eight hours after treatment, cell viability was measured by the MTS assay. Data represent the mean±SD percent viability compared to buffer treated cells. D) Primary acute myeloid leukemia (AML) blasts (n=4), CLL (n=5) or normal peripheral blood stem cells (PBSC) (n=3) were obtained from the peripheral blood of consenting patients with AML, CLL or donors of PBSC for allotransplantation, respectively. […] Data represent the mean±SD percentage of viable cells compared to buffer treated cells.
Primary cells. Primary human acute myeloid leukemia (AML) and chronic lymphocytic leukemia (CLL) samples were isolated from peripheral blood samples from consenting patients with AML and CLL, respectively, who had at least 80% malignant cells among the mononuclear cells in their peripheral blood. Primary normal hematopoietic cells were obtained from healthy volunteers donating peripheral blood mononuclear stem cells (PBSC) for allotransplantation. […]
Cell viability was assessed by the MTS (Promega, Madison, Wis.) and Alamar Blue Fluorescence assays (Invitrogen, Carlsbad, Calif.) according to manufacturer's instructions and as previously described [14]. Apoptosis was measured by Annexin V-FITC (Biovision Research Products, Mountain View, Calif.) staining and flow cytometry according to manufacturer's instructions and as previously described.

[17] = tested on: CEM cells over-expressing the multidrug resistant pumps Pgp, BCRP, or MRP1; assay: cell death in bortezomib-resistant CEM cells; assay type: cell-based; details: CEM cells resistant to bortezomib by over-expression of Pgp
[18] = tested on: OCI-AML2 or K562 human leukemia cells, MDAY-D2 murine leukemia cells in NOD-SCID mice; assay: mouse models of leukemia (xenograft), oral 5AHQ; assay type: in vivo
Experimental: Sublethally irradiated NOD/SCID mice were injected subcutaneously with U937 and K562 leukemia cells or intraperitoneally with MDAY-D2 leukemia cells. […] Eight (MDAY-D2) or ten (U937 and K562) days after tumor inoculation, mice were sacrificed, the subcutaneous or intraperitoneal tumor excised, and the weight of the tumors measured. The bars represent the median of the population. p values reflect the Mann-Whitney non-parametric test.
MDAY-D2 murine leukemia cells (5×10^5) were injected intraperitoneally into sublethally irradiated (3.5 Gy) NOD/SCID mice (Ontario Cancer Institute, Toronto, Canada). […] Mice were sacrificed, and the weight and volume of the intraperitoneal tumors were measured.
K562 leukemia cells (3×10^6) or U937 leukemia cells (2×10^6) were injected subcutaneously (s.c.) into the flank of sublethally irradiated NOD/SCID mice. […] Mice were then sacrificed, and the weight of the tumors was measured.
Sublethally irradiated NOD-SCID mice were injected subcutaneously with OCI-AML2 or K562 human leukemia cells or intraperitoneally with MDAY-D2 murine leukemia cells.

[19] = LD50 in mice; details: mouse, in vivo
[20] = tested on: bortezomib-resistant THP1 leukemia cells (β5 proteasome subunit mutated and over-expressed); details: 72 hours, trypan blue staining
Experimental: (§5) Cell lines. Human multiple myeloma (MM) and solid tumor cell lines were grown in Iscove's Modified Dulbecco's Medium (IMDM). […] These cells were maintained in bortezomib up to at least 7 days prior to the experiment. Media were supplemented with 10% fetal calf serum (FCS), 100 ug/mL penicillin, and 100 units/mL streptomycin (all from Hyclone, Logan, Utah).
(§6) After incubation, cell viability was measured by trypan blue staining.

[21] = tested on: THP1/BTZ50; assay: cells; details: Homo sapiens, THP-1, 72 h, read-out: IC50 5AHQ
Experimental: as §5, §6

[22] = tested on: THP1/BTZ100; assay: cells; details: Homo sapiens, THP-1, 72 h, read-out: IC50 5AHQ
Experimental: as §5, §6

[23] = tested on: THP1/BTZ200; assay: cells; details: Homo sapiens, THP-1, 72 h, read-out: IC50 5AHQ
Experimental: as §5, §6

[24] = tested on: THP1/BTZ500; assay: cells; details: Homo sapiens, THP-1, 72 h, read-out: IC50 5AHQ
Experimental: as §5, §6

[25] = tested on: chymotrypsin-like activity of the proteasome in leukemia, myeloma, and solid tumor cell lines; assay: proteasome activity after treatment of intact cells (Suc-LLVY-AMC); details: intact cells treated 24 hours, then lysed
Experimental: A) Myeloma, leukemia, and solid tumor cell lines were treated with increasing concentrations of 5AHQ. Twenty hours after treatment, cells were lysed and the preferential chymotrypsin-like substrate Suc-LLVY-AMC was added. The generation of free AMC was measured over time with a fluorescent spectrophotometric plate reader as described in the Materials and Methods. Data represent the mean±SD maximal rate of proteasomal activity expressed as a percentage of buffer treated cells.
To measure the effects of 5AHQ on the enzymatic activity of the proteasome in intact cells, solid tumor, leukemia and myeloma cell lines were treated with increasing concentrations of 5AHQ. Twenty hours after treatment, cells were lysed in 50 mM HEPES pH 7.5, 150 mM NaCl and 1% Triton X-100, and 2 mM ATP. To equal protein concentrations, the proteasome fluorogenic substrate, Suc-LLVY-AMC, was added and the generation of free AMC was measured over time with a fluorescent spectrophotometric plate reader as above.
Leukemia, myeloma, and solid tumor cell lines were treated with increasing concentration of 5AHQ for 24 hours. After treatment, cells were harvested, lysed, and the chymotrypsin-like activity of the proteasome was measured by monitoring the rate of cleavage of the fluorescent substrate Suc-LLVY-AMC.

[26] = tested on: proteasome; details: non-competitive inhibitor binding the alpha subunits [8]; cited from earlier work

T3 sequence (P25156 whole entry): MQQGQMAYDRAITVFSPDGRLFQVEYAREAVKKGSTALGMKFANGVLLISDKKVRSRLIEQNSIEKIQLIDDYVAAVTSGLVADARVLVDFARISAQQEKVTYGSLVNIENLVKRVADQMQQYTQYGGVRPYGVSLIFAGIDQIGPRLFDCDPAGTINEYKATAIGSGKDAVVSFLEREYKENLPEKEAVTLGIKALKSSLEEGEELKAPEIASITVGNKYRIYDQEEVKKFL
T3 sequence (P28061 9-211 partner): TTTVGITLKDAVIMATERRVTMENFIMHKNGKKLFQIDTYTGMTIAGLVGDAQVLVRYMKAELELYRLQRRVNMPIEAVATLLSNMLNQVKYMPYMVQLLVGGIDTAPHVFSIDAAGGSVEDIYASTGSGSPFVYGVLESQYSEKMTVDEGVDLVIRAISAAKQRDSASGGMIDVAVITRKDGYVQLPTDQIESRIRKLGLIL
T4 sequence (P25156 whole entry): as the sequence (P25156 whole entry) above

CC(C)C[C@H](NC(=O)[C@H](Cc1ccccc1)NC(=O)c1cnccn1)B(O)O [bortezomib, [(1R)-3-Methyl-1-[[(2S)-1-oxo-3-phenyl-2-[(pyrazinylcarbonyl)amino]propyl]amino]butyl]boronic acid]
RF BTZ (Resistance Factor) [1]: 1
RF BTZ (Resistance Factor) [2]: 45
RF BTZ (Resistance Factor) [3]: 79
RF BTZ (Resistance Factor) [4]: 129
RF BTZ (Resistance Factor) [5]: 237

CC(C)C[C@@H](C=O)NC(=O)[C@H](CC(C)C)NC(=O)[C@H](CC(C)C)NC(=O)OCc1ccccc1 [MG132, reference compound] (Cbz-Leu-Leu-Leu-aldehyde)
mode of inhibition [6]: competitively

Nc1ccc(O)c2ncccc12 [5AHQ, 5-amino-8-hydroxyquinoline]
mode of inhibition [6]: noncompetitively
Ki [7]: 2.1 ± 0.18 µM
Ki [8]: 161 ± 4 µM
mode of inhibition ([8]; Lineweaver-Burk plot): non-competitive kinetics
inhibition of the enzymatic activity of the proteasome [9]: inhibited the enzymatic activity of the proteasome at low micromolar concentrations
NMR spectral changes on binding [10]: clear spectral changes localized to residues Ile159, Val113, Val87, Val82, Leu112, Val89, Val134, Val24 and Leu136
amount of ubiquitinated protein [11]: increased the amount of ubiquitinated protein
NFkappaB activity [12]: inhibited basal and TNF-alpha stimulated NFkappaB activity
LD50 [13]: < 5 µM
LD50 [14]: < 5 µM
LD50 [15]: < 5 µM
concentration up to which not cytotoxic [16]: > 62.5 µM
sensitivity to 5AHQ-induced cell death [17]: remained equally sensitive to 5AHQ-induced cell death
decrease of tumor weight and volume compared to control ([18]; 50 mg/kg/day by oral gavage, all 3 mouse models): at least 50%
weight loss or gross organ toxicity ([18]; mouse, in vivo): without causing weight loss or gross organ toxicity
LD50 [19]: > 1000 mg/kg
sensitivity to 5AHQ [20]: remained essentially fully sensitive to 5AHQ
IC50 [21]: 6.6 ± 0.4 µM
IC50 [22]: 6.3 ± 0.4 µM
IC50 [23]: 6.4 ± 0.7 µM
IC50 [24]: 6.6 ± 0.9 µM
rate of Suc-LLVY-AMC cleavage [25]: inhibited the rate of Suc-LLVY-AMC cleavage

CCN(CC)CCCC(C)Nc1ccnc2cc(Cl)ccc12 (centres unmarked) [chloroquine]
proteasome inhibition relative to 5AHQ [26]: much weaker proteasome inhibitor than 5AHQ

From patent US20110319427A1 (priority 2009, published 2011)
